Literature values in US20230118497A1, “PYRAZOLE-CONTAINING POLYCYCLIC DERIVATIVE INHIBITOR, PREPARATION METHOD THEREFOR AND APPLICATION THEREOF” (Shanghai Hansoh Biomedical Co., Ltd., priority 2019, published 2023).

Key:
[1] = phase 2 RELIEF trial, patients with refractory chronic cough, any dose; cited from earlier work
P2X3/P2X2/3 = conditions: background; cited from earlier work
[2] = phase I clinical trials; cited from earlier work

SMILES: CNC(=O)c1cc(F)c(-c2nc3cc(C)ccn3c2C[C@H]2CN(C(=O)OC)CCO2)c(F)c1 [BLU5937]
- primary endpoint of placebo-adjusted reduction in cough frequency [1]: failed to achieve statistical significance
- selectivity to P2X3/P2X2/3 (P2X3/P2X2/3): high selectivity
- side effects [2]: no side effects such as taste side effects appeared
